Results taken from patent US20240262807A1, “COMPOUND USED AS BCR-ABL INHIBITOR” (CHIA TAI TIANQING PHARMACEUTICAL GROUP CO., LTD., priority 2021, published 2024).

Key:
K562 cells = test: Inhibitory effect of compounds on proliferation of K562 cells (CCK-8); format: cell-based; settings: Homo sapiens, 72 h with compound, CCK-8, 5% serum
Description: K562 cells in logarithmic growth phase and good cell condition were added to a centrifuge tube and centrifuged at 1000 rpm for 5 min in a low speed centrifuge. […] The cells were seeded on a 96-well plate at 100 µL/well using a multi-channel pipette and cultured in a cell incubator at 37° ° C. 5% CO2 and saturated humidity. […] Inhibition rate (%)=(mean value of negative control group−mean value of experimental group)/(mean value of negative control group−mean value of blank group)×100%. A dose-response curve was fitted by four-parameter analysis, with the logarithm of compound concentration serving as abscissa and inhibition rate serving as ordinate, such that IC50 was calculated.

[1] = molecular target: T1, Ba/F3-BCR-ABL1-T315I-C3 cells (Homo sapiens, UniProt P00519, T315I, cells depend on it); test: Inhibitory effect of compounds on proliferation of BCR-ABL T315I-transfected Ba/F3 cells (CCK-8); format: cell-based; settings: 72 h with compound, CCK-8, 5% serum, read-out: IC50 (nM) Ba/F3-BCR-ABL1 T315I
T1 construct: fused on or other part: P11274 (Breakpoint cluster region protein)
Description: Ba/F3-BCR-ABL1-T315I-C3 cells in logarithmic growth phase and good cell condition were added to a centrifuge tube and centrifuged at 1000 rpm for 5 min in a low speed centrifuge. The supernatant was discarded, and 5 mL of complete medium (RPMI 1640 basic medium+10% FBS) was added using a pipette for cell resuspension. The cells were counted using a cell counter, diluted with complete medium to a cell density of 6×10^4 cells/mL, and an equivalent amount of RPMI 1640 basic medium was added to adjust the serum concentration to 5% and the cell density to 3×10^4 cells/mL for plate seeding. The cells were seeded on a 96-well plate at 100 μL/well using a multi-channel pipette and cultured in a cell incubator at 37° C. 5% CO2 and saturated humidity. After 24 h incubation, compounds were loaded using a nanoliter pipettor, 8 concentrations (1000 nM, 250 nM, 63 nM, 16 nM, 3.9 nM, 0.98 nM, 0.24 nM, 0.061 nM) were set for each compound, and 2 replicate wells were set for each concentration; cells with no compounds added were taken as a negative control, and a plating medium with no cells added was taken as a blank control. After 72 h. […] Inhibition rate (%)=(mean value of negative control group−mean value of experimental group)/(mean value of negative control group−mean value of blank group)×100%. A dose-response curve was fitted by four-parameter analysis, with the logarithm of compound concentration serving as abscissa and inhibition rate serving as ordinate, such that ICso was calculated.

| IC50 (K562 cells) [nM] | GI50 [1] [nM] | SMILES |
| --- | --- | --- |
| 16 | 21 | Cn1ccc(-c2cc(C(=O)Nc3ccc(OC(F)(F)Cl)cc3)cnc2N2CC[C@H](Cl)C2)cc1=O [Compound 4] |
| 16 | 28 | Cn1ccc(-c2cc(C(=O)Nc3ccc(OC(F)(F)Cl)cc3)cnc2N2CC3(COC3)C2)cc1=O [Compound 5] |
| 52 | 23 | O=C(Nc1ccc(OC(F)(F)Cl)cc1)c1cnc(N2CCOCC2)c(-c2ccn(CCO)c(=O)c2)c1 [Compound 8] |
| 9.3 | – | CCn1ccc(-c2cc(C(=O)Nc3ccc(OC(F)(F)Cl)cc3)cnc2N2CCOCC2)cc1=O [Compound 9] |
| 12 | 54 | Cn1ccc(-c2cc(C(=O)Nc3ccc(OC(F)(F)Cl)cc3)cnc2N2CC[C@@H](O)C2)cc1=O [Compound 11] |
| 13 | 33 | Cn1ccc(-c2cc(C(=O)Nc3ccc(OC(F)(F)Cl)cc3)cnc2N2CC[C@H](F)C2)cc1=O [Compound 17] |
| 4.9 | 8.1 | Cn1ccc(-c2cc(C(=O)Nc3ccc(OC(F)(F)Cl)cc3)cnc2N2CC[C@@H](Cl)C2)cc1=O [Compound 18] |
| – | 20 | Cn1ccc(-c2cc(C(=O)Nc3ccc(OC(F)(F)Cl)cc3)cnc2N2C[C@H]3C[C@@H]2CO3)cc1=O [Compound 21] |
| – | 35 | Cn1ccc(-c2cc(C(=O)Nc3ccc(OC(F)(F)Cl)cc3)cnc2N2C[C@@H]3C[C@H]2CO3)cc1=O [Compound 22] |
| 6.3 | 12 | Cn1ccc(-c2cc(C(=O)Nc3ccc(OC(F)(F)Cl)cc3)cnc2N2CCC3(CC2)COC3)cc1=O [Compound 24] |
| 9 | 20 | Cn1ccc(-c2cc(C(=O)Nc3ccc(OC(F)(F)Cl)cc3)cnc2N2CC(C#N)C2)cc1=O [Compound 25] |
| 26 | 53 | Cn1ccc(-c2cc(C(=O)Nc3ccc(OC(F)(F)Cl)cc3)cnc2N2CC(C)(O)C2)cc1=O [Compound 26] |
| 18 | 67 | Cn1ccc(-c2cc(C(=O)Nc3ccc(OC(F)(F)Cl)cc3)cnc2N2C[C@H](O)[C@@H](F)C2)cc1=O [Compound 27] |
| 6.5 | 11 | Cn1ccc(-c2cc(C(=O)Nc3ccc(OC(F)(F)Cl)cc3)cnc2N2CC3CC3C2)cc1=O (stereo not drawn) [Compound 28] |
| 6.8 | 12 | Cn1ccc(-c2cc(C(=O)Nc3ccc(OC(F)(F)Cl)cc3)cnc2N2CCCO2)cc1=O [Compound 29] |
| 10 | 18 | Cn1ccc(-c2cc(C(=O)Nc3ccc(OC(F)(F)Cl)cc3)cnc2N2CC[C@H](C#N)C2)cc1=O [Compound 30] |
| 12 | 21 | Cn1ccc(-c2cc(C(=O)Nc3ccc(OC(F)(F)Cl)cc3)cnc2N2CC[C@@H](C#N)C2)cc1=O [Compound 31] |
| 4.9 | 9.1 | Cn1cc(Cl)c(-c2cc(C(=O)Nc3ccc(OC(F)(F)Cl)cc3)cnc2N2CCOCC2)cc1=O [Compound 33] |
| 20 | 7.8 | Cn1ccc(-c2cc(C(=O)Nc3ccc(OC(F)(F)Cl)cc3)cnc2N2CC3CCC(C2)O3)cc1=O [Compound 34] |
| – | 5.7 | O=C(Nc1ccc(OC(F)(F)Cl)cc1)c1cnc(N2C[C@H]3C[C@@H]2CO3)c(-c2cnn3c2COCC3)c1 [Compound 38] |
| – | 7.4 | O=C(Nc1ccc(OC(F)(F)Cl)cc1)c1cnc(N2C[C@@H]3C[C@H]2CO3)c(-c2cnn3c2COCC3)c1 [Compound 40] |
| 2.1 | 3.4 | CO[C@@H]1CCN(c2ncc(C(=O)Nc3ccc(OC(F)(F)Cl)cc3)cc2-c2cnn3c2COCC3)C1 [Compound 41] |
| 2.3 | 3.5 | O=C(Nc1ccc(OC(F)(F)Cl)cc1)c1cnc(N2CCCC2)c(-c2cnn3c2COCC3)c1 [Compound 42] |
| 2.2 | 4 | O=C(Nc1ccc(OC(F)(F)Cl)cc1)c1cnc(N2CCOCC2)c(-c2cnn3c2COCC3)c1 [Compound 43] |

| IC50 (K562 cells) [nM] | GI50 [1] [nM] | SMILES |
| --- | --- | --- |
| 4.5 | 2.4 | O=C(Nc1ccc(OC(F)(F)Cl)cc1)c1cnc(N2CC3CCC(C2)O3)c(-c2cnn3c2COCC3)c1 [Compound 44] |
| 13 | – | Cn1cnc(-c2cc(C(=O)Nc3ccc(OC(F)(F)Cl)cc3)cnc2N2CC(O)C2)cc1=O [Compound 48] |
| 10 | – | Cn1cnc(-c2cc(C(=O)Nc3ccc(OC(F)(F)Cl)cc3)cnc2N2CC3CCC(C2)O3)cc1=O [Compound 50] |
| 13 | – | Cn1cnc(-c2cc(C(=O)Nc3ccc(OC(F)(F)Cl)cc3)cnc2N2C[C@H]3C[C@@H]2CO3)cc1=O [Compound 51] |
| 26 | – | COCCNc1ncc(C(=O)Nc2ccc(OC(F)(F)Cl)cc2)cc1-c1cc(=O)n(C)cn1 [Compound 55] |
| 59 | – | C[C@H]1COCCN1c1ncc(C(=O)Nc2ccc(OC(F)(F)Cl)cc2)cc1-c1cc(=O)n(C)cn1 [Compound 57] |
| 18 | – | CNc1ncc(C(=O)Nc2ccc(OC(F)(F)Cl)cc2)cc1-c1cc(=O)n(C)cn1 [Compound 62] |
| 31 | – | Cn1cnc(-c2cc(C(=O)Nc3ccc(OC(F)(F)Cl)cc3)cnc2-n2ccnc2)cc1=O [Compound 66] |
| 47 | – | Cn1cnc(-c2cc(C(=O)Nc3ccc(OC(F)(F)Cl)cc3)cnc2-c2ccn[nH]2)cc1=O [Compound 69] |
| 95 | – | COCCOc1ncc(C(=O)Nc2ccc(OC(F)(F)Cl)cc2)cc1-c1cc(=O)n(C)cn1 [Compound 70] |
| 43 | – | COc1ncc(C(=O)Nc2ccc(OC(F)(F)Cl)cc2)cc1-c1cc(=O)n(C)cn1 [Compound 71] |
| 14 | – | Cn1nccc1-c1ncc(C(=O)Nc2ccc(OC(F)(F)Cl)cc2)cc1-c1cc(=O)n(C)cn1 [Compound 73] |
| 13 | – | Cn1cnc(-c2cc(C(=O)Nc3ccc(OC(F)(F)Cl)cc3)cnc2-n2cccn2)cc1=O [Compound 77] |
| 46 | – | CN(C)c1ncc(C(=O)Nc2ccc(OC(F)(F)Cl)cc2)cc1-c1cc(=O)n(CC2CCOCC2)cn1 [Compound 78] |
| 17 | – | Cn1cnc(-c2cc(C(=O)Nc3ccc(OC(F)(F)Cl)cc3)cnc2N2C[C@@H](F)[C@H](F)C2)cc1=O [Compound 79] |
| 14 | – | Cn1cnc(-c2cc(C(=O)Nc3ccc(OC(F)(F)Cl)cc3)cnc2N2CCCO2)cc1=O [Compound 80] |
| 57 | – | Cn1cc(-c2cc(C(=O)Nc3ccc(OC(F)(F)Cl)cc3)cnc2N2CCOCC2)ncc1=O [Compound 82] |
| 45 | – | Cn1cc(-c2cc(C(=O)Nc3ccc(OC(F)(F)Cl)cc3)cnc2N2CCOCC2)ccc1=O [Compound 84] |
| 10 | – | Cn1ncc(-c2cc(C(=O)Nc3ccc(OC(F)(F)Cl)cc3)cnc2N2C[C@H]3C[C@@H]2CO3)cc1=O [Compound 88] |
| 12 | – | C[C@@H]1COCCN1c1ncc(C(=O)Nc2ccc(OC(F)(F)Cl)cc2)cc1-c1cnn2c1COCC2 [Compound 93] |
| 39 | – | CN1Cc2nc(-c3cc(C(=O)Nc4ccc(OC(F)(F)Cl)cc4)cnc3N3CC[C@@H](O)C3)[nH]c2C1=O [Compound 95] |
| 10 | – | CN1CCc2oc(-c3cc(C(=O)Nc4ccc(OC(F)(F)Cl)cc4)cnc3N3CC[C@@H](O)C3)cc2C1=O [Compound 101] |
| – | 76 | O=C(Nc1ccc(OC(F)(F)Cl)cc1)c1cnc(N2CC[C@@H](O)C2)c(-c2cc3nccn3[nH]2)c1 [Compound 102] |

| SMILES | IC50 (K562 cells) [nM] | GI50 [1] [nM] |
| --- | --- | --- |
| Cn1ccc(-c2cc(C(=O)Nc3ccc(OC(F)(F)Cl)cc3)cnc2N2C3COCC2C3)cc1=O [Compound 20] | 31 | 38 |
| Cn1ccc(-c2cc(C(=O)Nc3ccc(OC(F)(F)Cl)cc3)cnc2N2CC3CC(C2)O3)cc1=O [Compound 23] | 10 | 18 |
| Cn1ccc(-c2cc(C(=O)Nc3ccc(OC(F)(F)Cl)cc3)cnc2N2C3CCC2COC3)cc1=O [Compound 35] | 16 | 13 |
| O=C(Nc1ccc(OC(F)(F)Cl)cc1)c1cnc(N2C3CCC2COC3)c(-c2cnn3c2COCC3)c1 [Compound 37] | 7.8 | 16 |
| O=C(Nc1ccc(OC(F)(F)Cl)cc1)c1cnc(N2CC3CC(C2)O3)c(-c2cnn3c2COCC3)c1 [Compound 39] | 5.9 | 2.4 |
| Cn1cnc(-c2cc(C(=O)Nc3ccc(OC(F)(F)Cl)cc3)cnc2N2C3CCC2COC3)cc1=O [Compound 49] | 10 | – |
| Cn1cnc(-c2cc(C(=O)Nc3ccc(OC(F)(F)Cl)cc3)cnc2N2CC3CC(C2)O3)cc1=O [Compound 52] | 6.1 | – |
| CON(C)c1ncc(C(=O)Nc2ccc(OC(F)(F)Cl)cc2)cc1-c1cc(=O)n(C)cn1 [Compound 81] | 10 | – |
| O=C(Nc1ccc(OC(F)(F)Cl)cc1)c1cnc(N2C3COCC2C3)c(-c2cnn3c2COCC3)c1 [Compound 92] | 15 | – |
